Source: article PMC9313321 (Biomedicines, 2022)

Key:
[1] = molecular target: T1, electric eel acetylcholinesterase (eeAChE) (Electrophorus electricus, UniProt O42275); test: biochemical
T1 construct: purchased Sigma-Aldrich
Description: (§1) The inhibition of electric eel acetylcholinesterase (eeAChE) and equine butyrylcholinesterase (eqBChE), both obtained from Sigma-Aldrich (Burlington, MA, USA), was studied using an adaptation of Elmman’s method, as previously described. For this, tris(hydroxymethyl)aminomethane (TRIS) 50 mM buffer at pH = 8.00, 4-(2-hydroxyethyl)-1-piperazine-ethanesulfonic acid (HEPES) 50 mM buffer at pH = 8.00 and HEPES 50 mM buffer at pH = 8.00 with NaCl 50 mM and MgCl2 20 mM were prepared. […] Working solutions of AChI and BChI were prepared daily by the proper dilution of the stock solutions in distilled water. A working solution of 5,5′-dithiobis-(2-nitrobenzoic acid) (DTNB) 3 mM in HEPES (NaCl, MgCl2) was prepared daily and kept under darkness. Stock solutions of eeAChE and eqBChE were prepared by dissolving the lyophilized powder enzyme in 10 mL of TRIS buffer under ice and they were divided into aliquots of 50 and 5 UN mL^−1 that were stored at −20 °C until needed. Stock solutions of 1 mg of each ligand in 1 mL MeOH (with 20% of DMSO) were prepared and working solutions for each ligand were obtained by the corresponding dilution from the stock solutions. A control measurement with 5 replicates (without ligand) and a calibration curve of 5 points with 3 replicates per point was derived. […] A blank solution containing HEPES (399 μL) and MeOH (50 μL) was prepared at the same time. […] The experiments were performed twice.

[2] = molecular target: equine butyrylcholinesterase (eqBChE) (Equus caballus, UniProt P81908); test: biochemical; details: for SI (selectivity index): IC50 (AChE)/IC50 (BChE), eeAChE and eqBChE; for IC50: eqBChE, 15 min pre-incubation, pH 8.00, read-out: BChE Inhib IC50
Description: as §1

[3] = molecular target: T2, Cu(II)-induced Aβ42 aggregation (Homo sapiens, UniProt P05067); test: Inhibition of Cu(II)-induced Aβ42 aggregation (thioflavin T fluorescence); type: biochemical; details: for inhibition at 20 µM: read-out: Aβ42 Cu-Ind. Aggreg. Inhib, copper (40 μM), 20 μM inhibitor, thioflavin-T fluorescence, 37 °C 24 h
T2 construct: Beta-amyloid protein, fragment 1-42; purchased GeneCust
Description: The inhibition of Aβ42 aggregation and Cu(II)-induced Aβ42 aggregation, carried out by the RIV–BIM hybrids, was studied using a reported method based on the fluorescence emission of thioflavin T [52, 53].
Solutions of phosphate buffer 0.215 M at pH = 8.00, Na2CO3 300 μM in distilled water, NaOH 250 mM in distilled water, glycine-NaOH 50 mM buffer at pH = 8.50 and CuCl2 240 μM in phosphate buffer were prepared. Stock solutions of […] of the RIV–BIM compounds were prepared in MeOH (with 20% DMSO). Working solutions of 240 μM of the RIV–BIM hybrids were prepared by the proper dilution of their stock solutions with phosphate buffer. A working solution of glycine-NaOH 50 mM buffer at pH = 8.50 containing 5 μM of thioflavin T (ThT) was prepared daily. Aβ42 (GeneCust) was pre-treated with 1,1,1,3,3,3-hexafluoro-2-propanol (HFIP) to obtain a solution of 0.149 mM by brief sonication and vortexing, which was kept covered overnight at room temperature. From the Aβ42 solution, aliquots of 250 μL were placed into Eppendorf tubes under ice and set to evaporate inside a hood at room temperature overnight. When the contents of the Eppendorf tubes were dried, the Aβ42 aliquots were stored at −20 °C until needed. To obtain the Aβ42 working solution, the Aβ42 aliquots were dissolved with a freshly prepared mixture of 69.5 μL of CH3CN/Na2CO3 (300 μM)/NaOH (250 mM) (48.3/48.3/3.4, v/v/v) by brief sonication and vortexing to obtain an Aβ42 solution of 531.24 μM. To this solution, 392.5 μL of phosphate buffer was added, achieving an Aβ42 working solution of 80 μM. To prepare the incubations, three replicates of Aβ42 alone (30 μL Aβ42 80 μM + 30 μL phosphate buffer), Aβ42 with RIV–BIM (30 μL Aβ42 80 μM + 10 μL RIV–BIM 240 μM + 20 μL phosphate buffer), Aβ42 with copper (30 μL Aβ42 80 μM + 10 μL CuCl2 240 μM + 20 μL phosphate buffer) and Aβ42 with copper and RIV–BIM (30 μL Aβ42 80 μM + 10 μL CuCl2 240 μM + 10 μL RIV–BIM 240 μM + 10 μL phosphate buffer) were placed in Eppendorfs. To obtain the blank solutions, a similar number of Eppendorfs, replacing Aβ42 with phosphate buffer, were prepared. Incubations were performed in a water bath at 37 °C with agitation for 24 h. Afterwards, 180 μL of glycine-NaOH 50 mM buffer at pH = 8.50 containing 5 μM of ThT was added to each Eppendorf and then they were vortexed. Finally, 200 μL of solution from each Eppendorf was placed in the wells of a microplate and fluorescence measurements were monitored using a Spectramax Gemini EM (Molecular Devices) fluorimeter with an excitation wavelength of 446 nm and an emission wavelength of 485 nm. Blank signals were subtracted from the corresponding samples. The fluorescence intensity of the Aβ42 + RIV–BIM solution was compared to that of the Aβ42 solution to obtain the inhibition of Aβ42 self-aggregation for each compound. The fluorescence intensity of the Aβ42 + Cu(II) + RIV–BIM solution was compared to that of the Aβ42 + Cu(II) solution to obtain the inhibition of the Cu(II)-induced Aβ42 aggregation for each hybrid.
The anti-amyloidogenic capacity of the compounds was assessed in vitro using the thioflavin T (ThT) method. To record fluorescence emission, excitation (446 nm) and emission (485 nm) wavelengths were used. When ThT binds to amyloid fibrils, an increase in absorbance and emission of this dye occurs with concomitant red shifts of the respective spectra. The percent of inhibition of Aβ42 aggregation is shown in Table 1, and the assays were performed in the presence of 20 μM of inhibitor. These concentration conditions were used to overcome solubility problems of some compounds in the aqueous phosphate buffer working medium. […]. […]

equine butyrylcholinesterase (eqBChE), sequence (P81908 whole entry): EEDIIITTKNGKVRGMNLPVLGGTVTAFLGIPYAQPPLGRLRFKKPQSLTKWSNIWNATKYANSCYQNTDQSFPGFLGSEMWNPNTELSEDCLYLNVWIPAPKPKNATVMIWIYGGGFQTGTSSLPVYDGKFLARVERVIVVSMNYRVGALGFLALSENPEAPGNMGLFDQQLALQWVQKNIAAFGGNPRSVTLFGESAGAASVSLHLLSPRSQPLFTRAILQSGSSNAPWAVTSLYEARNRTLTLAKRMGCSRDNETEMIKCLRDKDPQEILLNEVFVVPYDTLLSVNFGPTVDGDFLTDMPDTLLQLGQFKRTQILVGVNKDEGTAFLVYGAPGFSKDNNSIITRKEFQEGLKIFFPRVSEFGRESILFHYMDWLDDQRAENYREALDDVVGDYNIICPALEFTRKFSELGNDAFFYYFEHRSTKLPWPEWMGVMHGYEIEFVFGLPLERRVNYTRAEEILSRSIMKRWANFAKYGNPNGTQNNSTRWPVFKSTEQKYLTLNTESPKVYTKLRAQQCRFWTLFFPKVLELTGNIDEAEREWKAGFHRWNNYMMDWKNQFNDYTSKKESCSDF
T2 sequence (P05067 672-713 limits assumed): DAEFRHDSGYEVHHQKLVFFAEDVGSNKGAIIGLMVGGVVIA
T1 sequence (O42275 24-633): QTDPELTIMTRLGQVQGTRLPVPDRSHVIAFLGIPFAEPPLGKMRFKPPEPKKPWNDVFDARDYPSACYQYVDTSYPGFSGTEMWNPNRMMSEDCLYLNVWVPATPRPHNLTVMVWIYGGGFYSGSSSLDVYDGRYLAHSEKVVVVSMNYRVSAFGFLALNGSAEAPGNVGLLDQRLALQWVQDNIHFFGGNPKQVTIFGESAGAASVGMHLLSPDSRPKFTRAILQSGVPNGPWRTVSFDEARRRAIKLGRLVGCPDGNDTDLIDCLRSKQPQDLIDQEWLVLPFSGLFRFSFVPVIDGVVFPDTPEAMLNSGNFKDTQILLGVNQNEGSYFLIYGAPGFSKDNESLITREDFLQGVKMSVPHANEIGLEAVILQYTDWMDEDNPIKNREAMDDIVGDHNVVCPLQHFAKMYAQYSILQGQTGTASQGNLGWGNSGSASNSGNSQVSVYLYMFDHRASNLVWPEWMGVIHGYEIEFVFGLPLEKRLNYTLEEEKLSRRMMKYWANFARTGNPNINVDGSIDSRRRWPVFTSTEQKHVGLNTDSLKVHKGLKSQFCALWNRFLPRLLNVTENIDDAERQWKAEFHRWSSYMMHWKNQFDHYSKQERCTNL

| SMILES | IC50 [1] [µM] | SI (selectivity index) [2] | IC50 [2] [µM] | inhibition at 20 µM [3] [%] | Aβ42 Cu-Ind. Aggreg. Inhib ([3]; copper (40 μM), 20 μM inhibitor, thioflavin-T fluorescence, 37 °C 24 h) [%] |
| --- | --- | --- | --- | --- | --- |
| CCN(C)C(=O)Oc1cccc(NC(=O)c2cccc3[nH]c(-c4ccccc4O)nc23)c1 [Compound 5a, 3-(2-(2-Hydroxyphenyl)-1H-benzo[d]imidazole-4-carboxamido)phenyl Ethylmethylcarbamate] | 17.6 ± 0.4 | 19.6 | 0.9 ± 0.1 | 45.4 |  |
| CCN(C)C(=O)Oc1cccc(NC(=O)c2ccc3nc(-c4ccccc4O)[nH]c3c2)c1 [Compound 4a, 3-(2-(2-Hydroxyphenyl)-1H-benzo[d]imidazole-6-carboxamido)phenyl Ethylmethylcarbamate] | 17.6 ± 0.6 | 3.03 | 5.85 ± 0.03 | 41.2 |  |
| CCN(C)C(=O)Oc1ccc(CCCNC(=O)c2cccc3[nH]c(-c4ccccc4O)nc23)cc1 [Compound 5d, 4-(3-(2-(2-Hydroxyphenyl)-1H-benzo[d]imidazole-4-carboxamido) Propyl) Phenyl Ethyl(methyl)carbamate] | 21.4 ± 0.4 | 12.6 | 1.7 ± 0.2 | 41.2 to 60.8 | 40.3 |
| CCN(C)C(=O)Oc1cccc(CCNC(=O)c2ccc3nc(-c4ccccc4O)[nH]c3c2)c1 [Compound 4c, 3-(2-(2-(2-Hydroxyphenyl)-1H-benzo[d]imidazole-6-carboxamido)ethyl) Phenylethylmethylcarbamate] | 17.7 ± 0.8 | 3.69 | 4.8 ± 0.1 | 22 |  |
| CCN(C)C(=O)Oc1cccc(CNC(=O)c2ccc3nc(-c4ccccc4O)[nH]c3c2)c1 [Compound 4b, 3-((2-(2-Hydroxyphenyl)-1H-benzo[d]imidazole-6-carboxamido)methyl) Phenyl Ethylmethylcarbamate] | 14 ± 2 | 2.17 | 6.5 ± 0.4 | 48.8 |  |
| CCN(C)C(=O)Oc1ccc(CCCNC(=O)c2ccc3nc(-c4ccccc4O)[nH]c3c2)cc1 [Compound 4d, 4-(3-(2-(2-Hydroxyphenyl)-1H-benzo[d]imidazole-6-carboxamido)propyl) Phenyl Ethylmethylcarbamate] | 24 ± 1 | 1.25 | 19.2 ± 0.7 | 21.3 |  |
| CCN(C)C(=O)Oc1cccc(CNC(=O)c2cccc3[nH]c(-c4ccccc4O)nc23)c1 [Compound 5b, 3-((2-(2-Hydroxyphenyl)-1H-benzo[d]imidazole-4-carboxamido)methyl) Phenyl Ethylmethylcarbamate] | 31.7 ± 0.1 | 105.7 | 0.3 ± 0.01 | 60.8 |  |
